Experimental findings from paper PMC10954796, “Post-translational modifications of beta-amyloid alter its transport in the blood-brain barrier in vitro model” (Frontiers in Molecular Neuroscience, 2024) are described below.

By Kd is commonly meant the free concentration of one partner at which half of the binding sites on the other are occupied at equilibrium, for simple one-to-one binding.

Ends that are not written are not given here.

The assay deals with T1, sRAGE (Homo sapiens, UniProt Q15109).
T1 construct: the soluble extracellular part of RAGE (sRAGE); purchased Abcam
Kind of assay: Microscale thermophoresis, interaction with sRAGE. The assay is classed as binding. The note with it: MST, Monolith NT.115; 50 nM RED-tris-NTA-labeled His-tag sRAGE; peptide 6.1 nM to 200 μM; 4% DMSO, 20% glycerol; mean ± SD, n = 4–5; read-out: dissociation constant (Kd) with sRAGE.

T1 sequence (Q15109 23-342 limits assumed): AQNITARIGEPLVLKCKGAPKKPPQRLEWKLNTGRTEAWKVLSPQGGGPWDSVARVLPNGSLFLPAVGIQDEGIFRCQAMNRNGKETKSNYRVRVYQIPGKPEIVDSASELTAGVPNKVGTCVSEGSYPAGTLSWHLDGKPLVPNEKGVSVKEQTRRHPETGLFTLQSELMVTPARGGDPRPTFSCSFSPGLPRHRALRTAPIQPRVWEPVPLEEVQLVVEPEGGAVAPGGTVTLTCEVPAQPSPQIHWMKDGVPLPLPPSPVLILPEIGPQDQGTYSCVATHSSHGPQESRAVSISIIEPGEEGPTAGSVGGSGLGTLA

In the case of LVFFAEDVGSNKGAIIGLMVGGVVIA [Aβ17 − 42], the Kd was determined as 10 ± 5 µM.
